From patent US20190369111A1, “MOLECULAR KINETICS EVALUATION METHOD AND SCREENING METHOD” (Tokyo University of Science Foundation, priority 2016, published 2019) come the findings set out here.

The series deals with T1, wild-type K-Ras protein (Mus musculus, UniProt P32883).
T1 construct: intraperitoneally administered to C57BL/6J wild-type mice; from tissue; host or cells: C57BL/6J wild-type mice: spleen, pancreas, liver, kidneys, colon, lungs, heart
In words: Degradation of wild-type K-Ras protein in each tissue of mouse after administration, Western blot analysis. In kind it is in vivo. The protocol:
TUS-007 was dissolved in DMSO, and then dissolved in corn oil so that the concentration of DMSO was 10 vol %, and then intraperitoneally administered to C57BL/6J wild-type mice (8 to 9 weeks old, male) (CLEA Japan, Inc.) in an amount of 40 mg/kg body weight or 80 mg/kg body weight (n=3 to 4). Furthermore, in addition to a group in which TUS-007 was administered, a group in which Ras-SOS had been administered in a dose of 80 mg/kg body weight was prepared. As a control, an injection carrier (corn oil containing 10 vol % DMSO) was used. The mice were kept under an environment of ad libitum access to food and water. The mice were dissected under deep anesthesia by Somnopentyl (Kyoritsu Seiyaku Corporation) 48 hours after administration. Abdominal section was performed, and then the spleen, pancreas, liver, kidneys, colon, lungs, and heart were sequentially extracted and flash frozen in liquid nitrogen. Each tissue frozen in liquid nitrogen was stored in a deep freezer at −80° C.
The frozen tissues (spleen: 0.02 g, other tissues: 0.04 g) were each triturated, and then 500 μL of TKM tissue lysis buffer (50 mM triethanolamine (pH 7.8), 50 mM KCl, 5 mM MgCl2, 0.25 M sucrose, 1 mM PMSF, Protein Inhibitors Cocktail-EDTA free (Nacalai Tesque, Inc.), 1 mM DTT, and a recombinant RNase inhibitor (0.2 U/μL, Takara Bio) were added, and dissolved by rotation for 15 minutes (1 rpm, 25° C.). Then, the resultant product was subjected to centrifugation (at 13800 rpm×30 minutes, 4° C.), and the supernatants (each tissue extract) were collected. The concentration of the extracted proteins was quantified by a spectrophotometer.
Each tissue extract collected was subjected to Western blot analysis. An SDS-PAGE gel was prepared using TGX™ FastCast™ Acrylamide Kit, 12% (Bio-Rad). Electrophoresis samples were prepared in a 6×SDS-PAGE sample buffer (62.5 mM Tris-HCl pH 6.8, 2% SDS, 5% 2-mercaptoethanol, 10% glycerol, 0.25% BPB), and placed on a heat block at 95° C. for 5 minutes. Electrophoresis was performed at 160 V for 60 minutes (electrophoresis buffer; 195 mM glycine, 25 mM Tris).
After electrophoresis, proteins were transferred to a PVDF membrane (Immobion™-P, Millipore) under conditions of 100 V and 1.5 hours using a tank-type blotting device and a transfer buffer (25 mM Tris-HCl, 195 mM glycine, 0.01% SDS, 15% methanol). The membrane was split into two at the position of a 25 kDa marker. The membrane after transfer was shaken and blocked in 5% skim milk/TBS-T (100 mM Tris-HCl, 150 mM NaCl, 0.1% Tween-20, pH 7.6) at room temperature for 30 minutes. After blocking, a primary antibody reaction was performed in 5% skim milk/TBS-T. As the primary antibody, an anti-K-Ras antibody (sc-30, SantaCruz, diluted 500 times) and an anti-GAPDH antibody (sc-32233, SantaCruz, diluted 20000 times) were used. The membrane was shaken at room temperature for 60 minutes (anti-K-Ras antibody) or at 4° C. overnight (anti-GAPDH antibody), and then the membrane was washed with TBS-T for 5 minutes. It is noted that washing was performed four times. After the primary antibody reaction, a secondary antibody reaction was performed in 1% skim milk/TBS-T. The membrane was shaken at room temperature for 30 minutes, and then the membrane was washed with TBS-T for 5 minutes. It is noted that washing was performed four times. Furthermore, the membrane was washed with TBS (100 mM Tris-HCl, 150 mM NaCl, pH 7.6) for 10 minutes. Subsequently, the membrane was treated with a chemiluminescence reagent Immobilon™ Western (Millipore), and then chemiluminescence was detected using a lumino image analyzer LAS-3000 (FUJIFILM Corporation). Detected bands were quantified with an image processing software ImageJ (NIH).
A general note: Immunoblotting shows a protein as a band on a membrane.

T1 sequence (P32883 whole entry): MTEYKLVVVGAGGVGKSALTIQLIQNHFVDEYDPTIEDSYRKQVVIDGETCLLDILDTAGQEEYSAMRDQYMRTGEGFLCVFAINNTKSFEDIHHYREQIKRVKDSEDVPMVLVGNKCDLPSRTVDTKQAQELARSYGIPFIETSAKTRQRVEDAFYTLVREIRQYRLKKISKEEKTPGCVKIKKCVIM

For `CC[C@@H](C)[C@H](NC(=O)CCCCCCNC(=O)[C@H](CC(C)C)NC(=O)CNC(=O)c1cc(Cl)ccc1Cl)C(=O)Nc1ccc2[nH]c(Cc3c[nH]c4ccccc34)nc2c1` [TUS-007], for the setting “intraperitoneal 40 or 80 mg/kg body weight, 48 hours after administration, colon”, the “amount of wild-type K-Ras protein in colon” value is given as “reduced in a concentration dependent manner”. For the same compound, for the setting “intraperitoneal 40 or 80 mg/kg body weight, 48 hours after administration, heart”, the “amount of wild-type K-Ras protein in heart” value is “not reduced”. In addition, the “amount of wild-type K-Ras protein in kidneys” value (intraperitoneal 40 or 80 mg/kg body weight, 48 hours after administration, kidneys) is recorded as “reduced in a concentration dependent manner”. In addition, the “amount of wild-type K-Ras protein in liver” value (intraperitoneal 40 or 80 mg/kg body weight, 48 hours after administration, liver) is “not reduced”. In addition, for the setting “intraperitoneal 40 or 80 mg/kg body weight, 48 hours after administration, lungs”, the “amount of wild-type K-Ras protein in lungs” value is listed as “not reduced”. Moreover, under “intraperitoneal 40 or 80 mg/kg body weight, 48 hours after administration, pancreas”, the “amount of wild-type K-Ras protein in pancreas” value was “reduced in a concentration dependent manner”. Also, for the setting “intraperitoneal 40 or 80 mg/kg body weight, 48 hours after administration, spleen”, the “amount of wild-type K-Ras protein in spleen” value is reported as “reduced in a concentration dependent manner”. Moreover, the “transfer property to tissues (molecular kinetics)” value (suggested from K-Ras degradation in tissues) is “showed a higher transfer property in the pancreas, colon, kidneys, and spleen as compared with the lungs, liver, and heart”.
